Source: patent US20060289019A1, “Information method and system for generating data for optimizing a medical treatment, and equipment used in this system” (IPPM HOLDING SA, priority 2005, published 2006)

Assays:
[1] = male, human, in vivo
Protocol: A patient suffering from schizo-affective disorder and from dual personality disorder reacts correctly to clozapine (clozaril, 600 mg/day, blood concentration: 502 ng/mL). They are also treated with lithium (eskalith, 900 mg/day). […] After 11 days the patient had to be admitted to the emergency department because they had too high a blood level of clozapine (2112 ng/mL).
Thus, the DEM will transfer the pharmacogenetic data from the DGSB. It will find, according to the pharmacokinetic data and studies on clozapine-fluvoxamine interaction, an appropriate function and the corresponding statistical values. […] The dosage of fluvoxamine is sought to be maintained constant. Still with reference to FIG. 3, the straight line which is of interest therefore, is that for which the blood level is 5 μM. […] The equation of this straight line (according to data taken from a publication) is y=3.7×/1.8 ? x=1.8y/3.7. Therefore if y=502 ng/mL then x=502*1.8/3.7=244 ng/mL. This means that the current dosage would need to be reduced by at least a half in order to avoid too great an interaction between the two products and especially to prevent a worrying blood level of clozapine in the blood. This optimization reasoning will be carried out by the OS as a function of the data which are sent to it by the DEM.

[2] = system: clozapine N-demethylation; conditions: cited from earlier work

Compound | clozapine blood level x calculated from straight line x=1.8y/3.7 for y=502 ng/mL [1] | clozapine N-demethylation inhibitor strength [2]
CN1CCN(C2=Nc3cc(Cl)ccc3Nc3ccccc32)CC1 [clozapine] | 244 ng/mL | –
COCCCC/C(=N\OCCN)c1ccc(C(F)(F)F)cc1 [fluvoxamine] | – | strong
